{
  "source": "ChEMBL document CHEMBL4138270",
  "about": "“Discovery of MK-8722: A Systemic, Direct Pan-Activator of AMP-Activated Protein Kinase” (ACS Med Chem Lett, 2018)",
  "key": {"[1]": {"test_system": "Mus musculus", "experiment": "Antidiabetic activity in C57BL/6 eDIO mouse assessed as reduction in fasting blood glucose level at 30 mg/kg, po measured up to 120 mins", "type": "functional, organism-based"}, "[2]": {"biological_target": "5-hydroxytryptamine receptor 2A (Homo sapiens) (UniProt P28223)", "sequence (P28223 whole entry)": "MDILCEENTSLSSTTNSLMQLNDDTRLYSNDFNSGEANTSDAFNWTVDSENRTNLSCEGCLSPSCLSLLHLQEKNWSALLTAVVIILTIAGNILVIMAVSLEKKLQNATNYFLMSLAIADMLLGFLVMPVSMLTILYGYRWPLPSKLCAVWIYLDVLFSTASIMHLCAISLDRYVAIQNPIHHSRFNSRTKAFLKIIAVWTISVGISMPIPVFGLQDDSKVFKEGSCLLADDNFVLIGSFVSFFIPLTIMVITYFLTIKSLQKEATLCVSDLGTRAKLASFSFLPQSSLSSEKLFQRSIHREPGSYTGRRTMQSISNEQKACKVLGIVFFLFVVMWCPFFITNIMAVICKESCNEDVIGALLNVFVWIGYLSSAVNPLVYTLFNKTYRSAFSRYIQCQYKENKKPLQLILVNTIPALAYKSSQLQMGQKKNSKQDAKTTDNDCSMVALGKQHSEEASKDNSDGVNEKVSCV", "experiment": "Activity at 5-HT2A (unknown origin)"}, "[3]": {"test_system": "Mus musculus", "experiment": "In vivo activation of AMPK1 in C57BL/6 db/+ mouse assessed as ratio of phosphorylated ACC to total ACC in liver at 30 mg/kg, po administered as single dose measured after 2 hrs by MSD electrochemiluminescence assay relative to control"}, "[4]": {"experiment": "Ratio of drug level in liver to skeletal muscle in C57BL/6 db/+ mouse at 30 mg/kg, po administered as single dose measured after 2 hrs", "conditions": "in vivo"}, "[5]": {"experiment": "Apparent permeability in pig LLC-PK1 cells", "type": "ADME, cell-based, Sus scrofa"}, "[6]": {"test_system": "Mus musculus", "experiment": "Antidiabetic activity in C57BL/6 eDIO mouse assessed as reduction in fasting blood glucose level at 10 mg/kg, po measured up to 120 mins", "type": "functional, organism-based"}, "[7]": {"biological_target": "AMPK alpha1/beta1/gamma2 (Homo sapiens) (UniProt Q9UGJ0+Q9Y478+Q13131)", "experiment": "Activation of CaMKK2-phosphorylated AMPK2 alpha1/beta1/gamma2 (unknown origin) using fluorescein-labeled SAMS peptide as substrate pretreated for 30 mins in presence of AMP followed by substrate addition measured after 60 mins by fluorescence assay", "type": "protein-complex assay"}, "[8]": {"experiment": "Drug level in C57BL/6 eDIO mouse plasma at 10 mg/kg, po measured at 2 to 3 hrs post dose", "type": "ADME, organism-based", "conditions": "in vivo"}, "[9]": {"biological_target": "AMPK alpha2/beta1/gamma1 (Homo sapiens) (UniProt P54646+P54619+Q9Y478)", "experiment": "Activation of CaMKK2-phosphorylated AMPK7 alpha2/beta1/gamma1 (unknown origin) using fluorescein-labeled SAMS peptide as substrate pretreated for 30 mins in presence of AMP followed by substrate addition measured after 60 mins by fluorescence assay", "type": "protein-complex assay"}, "[10]": {"biological_target": "Amine oxidase [flavin-containing] A (Homo sapiens, UniProt P21397)", "experiment": "Activity at MAOA (unknown origin)"}, "[11]": {"biological_target": "AMP-activated protein kinase alpha-1/beta-2/gamma-3 (Homo sapiens) (UniProt O43741+Q13131+Q9UGI9)", "experiment": "Activation of CaMKK2-phosphorylated AMPK6 alpha1/beta2/gamma3 (unknown origin) using fluorescein-labeled SAMS peptide as substrate pretreated for 30 mins in presence of AMP followed by substrate addition measured after 60 mins by fluorescence assay", "type": "protein-complex assay"}, "[12]": {"experiment": "Drug level in C57BL/6 eDIO mouse plasma at 30 mg/kg, po measured at 2 to 3 hrs post dose", "type": "ADME, organism-based", "conditions": "in vivo"}, "[13]": {"biological_target": "AMP-activated protein kinase alpha-2/beta-2/gamma-2 (Homo sapiens) (UniProt P54646+O43741+Q9UGJ0)", "experiment": "Activation of CaMKK2-phosphorylated AMPK11 alpha2/beta2/gamma2 (unknown origin) using fluorescein-labeled SAMS peptide as substrate pretreated for 30 mins in presence of AMP followed by substrate addition measured after 60 mins by fluorescence assay", "type": "protein-complex assay"}, "[14]": {"biological_target": "5'-AMP-activated protein kinase catalytic subunit alpha-2/beta-1/gamma-2 (Homo sapiens) (UniProt P54646+Q9UGJ0+Q9Y478)", "sequence (P54646 whole entry)": "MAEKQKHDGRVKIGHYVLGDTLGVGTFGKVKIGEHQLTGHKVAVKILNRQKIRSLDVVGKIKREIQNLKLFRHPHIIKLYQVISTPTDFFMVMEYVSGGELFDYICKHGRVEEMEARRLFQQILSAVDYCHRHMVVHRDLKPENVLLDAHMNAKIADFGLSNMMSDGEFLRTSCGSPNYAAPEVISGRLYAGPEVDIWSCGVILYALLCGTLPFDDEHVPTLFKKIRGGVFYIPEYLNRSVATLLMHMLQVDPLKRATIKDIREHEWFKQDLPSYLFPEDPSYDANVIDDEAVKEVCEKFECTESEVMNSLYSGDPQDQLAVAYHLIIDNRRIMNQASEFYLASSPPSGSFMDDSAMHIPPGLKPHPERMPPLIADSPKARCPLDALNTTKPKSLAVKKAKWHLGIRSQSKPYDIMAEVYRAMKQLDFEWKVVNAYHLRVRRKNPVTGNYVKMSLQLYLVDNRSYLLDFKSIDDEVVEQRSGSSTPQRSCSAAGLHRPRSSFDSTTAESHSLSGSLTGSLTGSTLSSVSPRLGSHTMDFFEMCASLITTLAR", "sequence (Q9UGJ0 whole entry partner)": "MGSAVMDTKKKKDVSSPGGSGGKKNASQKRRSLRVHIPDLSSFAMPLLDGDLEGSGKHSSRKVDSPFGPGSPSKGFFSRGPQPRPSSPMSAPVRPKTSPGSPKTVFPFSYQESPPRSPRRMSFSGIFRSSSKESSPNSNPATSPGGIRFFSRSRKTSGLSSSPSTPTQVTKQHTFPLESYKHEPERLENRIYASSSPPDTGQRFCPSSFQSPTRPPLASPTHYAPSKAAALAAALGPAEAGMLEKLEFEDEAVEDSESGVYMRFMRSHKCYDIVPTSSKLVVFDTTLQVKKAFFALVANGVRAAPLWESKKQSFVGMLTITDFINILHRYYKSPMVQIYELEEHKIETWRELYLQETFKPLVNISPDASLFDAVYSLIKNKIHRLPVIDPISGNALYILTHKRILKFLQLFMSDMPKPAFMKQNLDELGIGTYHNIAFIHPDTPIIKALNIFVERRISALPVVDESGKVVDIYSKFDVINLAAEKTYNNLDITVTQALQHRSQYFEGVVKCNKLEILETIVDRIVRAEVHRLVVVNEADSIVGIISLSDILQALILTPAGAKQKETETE", "sequence (Q9Y478 2-270 partner limits assumed)": "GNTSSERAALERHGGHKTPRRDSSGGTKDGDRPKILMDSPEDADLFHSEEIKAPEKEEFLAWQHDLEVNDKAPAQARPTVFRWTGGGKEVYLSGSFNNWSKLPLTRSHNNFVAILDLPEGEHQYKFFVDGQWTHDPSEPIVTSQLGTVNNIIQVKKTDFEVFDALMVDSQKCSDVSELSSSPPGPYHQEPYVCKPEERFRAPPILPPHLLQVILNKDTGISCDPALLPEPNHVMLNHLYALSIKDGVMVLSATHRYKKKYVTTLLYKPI", "experiment": "Activation of CaMKK2-phosphorylated AMPK8 alpha2/beta1/gamma2 (unknown origin) using fluorescein-labeled SAMS peptide as substrate pretreated for 30 mins in presence of AMP followed by substrate addition measured after 60 mins by fluorescence assay", "type": "protein-complex assay"}, "[15]": {"test_system": "Mus musculus", "experiment": "Antidiabetic activity in po dosed C57BL/6 eDIO mouse assessed as reduction in glucose excursion pretreated for 1 hr followed by glucose-challenge measured up to 90 mins by OGTT", "type": "functional, organism-based"}, "[16]": {"biological_target": "AMP-activated protein kinase alpha-2/beta-1/gamma-3 (Homo sapiens) (UniProt P54646+Q9Y478+Q9UGI9)", "sequence (P54646 whole entry)": "as the sequence (P54646 whole entry) above", "sequence (Q9UGI9 whole entry partner)": "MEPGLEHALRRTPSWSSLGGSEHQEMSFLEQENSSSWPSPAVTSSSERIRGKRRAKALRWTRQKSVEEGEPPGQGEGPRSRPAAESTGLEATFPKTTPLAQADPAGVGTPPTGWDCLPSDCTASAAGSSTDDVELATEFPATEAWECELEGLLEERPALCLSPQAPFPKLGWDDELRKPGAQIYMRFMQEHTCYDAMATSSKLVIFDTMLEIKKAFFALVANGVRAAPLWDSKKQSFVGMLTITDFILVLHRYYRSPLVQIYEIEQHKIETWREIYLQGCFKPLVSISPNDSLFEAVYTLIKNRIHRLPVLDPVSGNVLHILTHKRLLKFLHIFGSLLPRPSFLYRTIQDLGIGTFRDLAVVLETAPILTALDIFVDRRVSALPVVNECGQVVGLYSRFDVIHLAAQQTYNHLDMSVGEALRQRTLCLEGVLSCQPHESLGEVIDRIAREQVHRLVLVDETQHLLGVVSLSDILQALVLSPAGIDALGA", "sequence (Q9Y478 2-270 partner limits assumed)": "as the sequence (Q9Y478 2-270 partner limits assumed) above", "experiment": "Activation of CaMKK2-phosphorylated AMPK9 alpha2/beta1/gamma3 (unknown origin) using fluorescein-labeled SAMS peptide as substrate pretreated for 30 mins in presence of AMP followed by substrate addition measured after 60 mins by fluorescence assay", "type": "protein-complex assay"}, "[17]": {"biological_target": "AMPK alpha1/beta1/gamma3 (Homo sapiens) (UniProt Q9Y478+Q13131+Q9UGI9)", "experiment": "Activation of CaMKK2-phosphorylated AMPK3 alpha1/beta1/gamma3 (unknown origin) using fluorescein-labeled SAMS peptide as substrate pretreated for 30 mins in presence of AMP followed by substrate addition measured after 60 mins by fluorescence assay", "type": "protein-complex assay"}, "[18]": {"test_system": "Mus musculus", "experiment": "Antidiabetic activity in C57BL/6 eDIO mouse assessed as reduction in blood glucose level at 10 to 30 mg/kg, po pretreated for 1 hr followed by glucose-challenge measured up to 90 mins in presence of xylose by OGTT", "type": "functional, organism-based"}, "[19]": {"experiment": "Substrate activity at OATP1B2 (unknown origin) expressed in MDCK2 cells assessed as enzyme-mediated cellular uptake by liquid scintillation counting method", "type": "ADME, cell-based", "conditions": "human, mdck"}, "[20]": {"biological_target": "AMPK alpha1/beta2/gamma1 (Homo sapiens) (UniProt O43741+P54619+Q13131)", "experiment": "Activation of CaMKK2-phosphorylated AMPK4 alpha1/beta2/gamma1 (unknown origin) using fluorescein-labeled SAMS peptide as substrate pretreated for 30 mins in presence of AMP followed by substrate addition measured after 60 mins by fluorescence assay", "type": "protein-complex assay"}, "[21]": {"biological_target": "Sodium-dependent dopamine transporter (Homo sapiens) (UniProt Q01959)", "sequence (Q01959 whole entry)": "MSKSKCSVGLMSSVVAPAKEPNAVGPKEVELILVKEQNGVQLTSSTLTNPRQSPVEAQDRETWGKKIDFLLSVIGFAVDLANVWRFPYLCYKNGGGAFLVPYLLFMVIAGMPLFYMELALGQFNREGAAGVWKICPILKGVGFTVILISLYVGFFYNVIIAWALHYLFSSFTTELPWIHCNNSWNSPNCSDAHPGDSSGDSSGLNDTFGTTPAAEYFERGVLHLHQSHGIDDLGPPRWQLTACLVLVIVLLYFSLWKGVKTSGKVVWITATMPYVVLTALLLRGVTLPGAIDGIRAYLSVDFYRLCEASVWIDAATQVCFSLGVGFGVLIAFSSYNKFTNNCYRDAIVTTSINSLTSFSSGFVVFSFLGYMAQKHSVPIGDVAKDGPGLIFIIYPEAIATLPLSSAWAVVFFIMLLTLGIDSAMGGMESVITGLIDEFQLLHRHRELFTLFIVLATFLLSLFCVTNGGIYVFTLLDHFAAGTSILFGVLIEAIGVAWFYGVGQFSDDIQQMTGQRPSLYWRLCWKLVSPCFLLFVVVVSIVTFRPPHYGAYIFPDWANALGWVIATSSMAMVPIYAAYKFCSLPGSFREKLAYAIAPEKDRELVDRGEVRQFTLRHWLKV", "experiment": "Activity at DAT (unknown origin)"}, "[22]": {"biological_target": "AMP-activated protein kinase (AMPK) alpha-1/beta-1/gamma-1 (Homo sapiens) (UniProt P54619+Q9Y478+Q13131)", "experiment": "Activation of CaMKK2-phosphorylated AMPK1 alpha1/beta1/gamma1 (unknown origin) assessed as ratio of 5-(6-chloro-5-(1-methyl-1H-indol-5-yl)-1H-benzo[d]imidazol-2-yloxy)-2-methylbenzoic acid maximum activation to test compound maximum activation at 50 uM using fluorescein-labeled SAMS peptide as substrate pretreated for 30 mins in presence of AMP followed by substrate addition measured after 60 mins by fluorescence assay relative to AMP", "type": "protein-complex assay"}, "[23]": {"test_system": "Mus musculus", "experiment": "Antidiabetic activity in po dosed C57BL/6 eDIO mouse assessed as reduction in fasting blood glucose level pretreated for 1 hr followed by glucose-challenge measured up to 90 mins by OGTT", "type": "functional"}, "[24]": {"biological_target": "T1, AMPK alpha2/beta2/gamma1 (Homo sapiens) (UniProt P54646+O43741+P54619)", "T1 sequence (O43741 whole entry, looked up)": "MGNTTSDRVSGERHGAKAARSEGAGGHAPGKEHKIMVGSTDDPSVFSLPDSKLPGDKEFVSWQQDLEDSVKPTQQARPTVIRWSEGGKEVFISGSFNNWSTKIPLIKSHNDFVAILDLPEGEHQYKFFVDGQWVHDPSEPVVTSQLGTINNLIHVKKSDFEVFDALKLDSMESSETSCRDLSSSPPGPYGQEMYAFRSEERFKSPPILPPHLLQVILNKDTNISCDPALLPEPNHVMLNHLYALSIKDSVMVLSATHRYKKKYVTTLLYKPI", "T1 sequence (P54619 whole entry, looked up)": "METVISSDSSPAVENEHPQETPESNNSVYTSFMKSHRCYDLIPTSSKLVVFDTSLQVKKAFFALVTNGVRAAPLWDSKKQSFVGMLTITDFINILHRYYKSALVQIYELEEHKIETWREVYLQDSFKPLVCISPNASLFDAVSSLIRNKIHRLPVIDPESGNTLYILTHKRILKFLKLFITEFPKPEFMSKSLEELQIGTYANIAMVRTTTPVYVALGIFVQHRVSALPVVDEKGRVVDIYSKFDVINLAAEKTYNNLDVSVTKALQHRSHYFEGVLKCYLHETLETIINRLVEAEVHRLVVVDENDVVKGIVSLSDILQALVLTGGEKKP", "T1 sequence (P54646 whole entry, looked up)": "as the sequence (P54646 whole entry) above", "experiment": "Activation of CaMKK2-phosphorylated AMPK10 alpha2/beta2/gamma1 (unknown origin) assessed as ratio of 5-(6-chloro-5-(1-methyl-1H-indol-5-yl)-1H-benzo[d]imidazol-2-yloxy)-2-methylbenzoic acid maximum activation to test compound maximum activation at 50 uM using fluorescein-labeled SAMS peptide as substrate pretreated for 30 mins in presence of AMP followed by substrate addition measured after 60 mins by fluorescence assay relative to AMP", "type": "protein-complex assay"}, "[25]": {"biological_target": "T1, AMPK alpha2/beta2/gamma1 (Homo sapiens)", "experiment": "Activation of CaMKK2-phosphorylated AMPK10 alpha2/beta2/gamma1 (unknown origin) assessed as ratio of 5-(6-chloro-5-(1-methyl-1H-indol-5-yl)-1H-benzo[d]imidazol-2-yloxy)-2-methylbenzoic acid EC50 to test compound EC50 using fluorescein-labeled SAMS peptide as substrate pretreated for 30 mins in presence of AMP followed by substrate addition measured after 60 mins by fluorescence assay", "type": "protein-complex assay"}},
  "note": "Activity calls are given as the source filed them. No cut-off for these calls is given here.",
  "data": [
    {"smiles": "O[C@@H]1CO[C@H]2[C@@H]1OC[C@H]2Oc1nc2nc(-c3ccc(-c4ccccc4)cc3)c(Cl)cc2[nH]1", "values": [
      {"measurement": "Activity", "setting": "[1]", "value": "Active"},
      {"measurement": "Activity", "setting": "[2]", "value": "3 to 10", "unit": "µM"},
      {"measurement": "fold change (FC)", "setting": "[3]", "value": 1.9},
      {"measurement": "Ratio", "setting": "[4]", "value": 3},
      {"measurement": "Papp", "setting": "[5]", "value": 23.6, "unit": "×10⁻⁶ cm/s"},
      {"measurement": "Activity", "setting": "[6]", "value": "Active"},
      {"measurement": "Activity", "setting": "[7]", "value": "Active"},
      {"measurement": "concentration", "setting": "[8]", "value": 18, "unit": "µM"},
      {"measurement": "Activity", "setting": "[9]", "value": "Active"},
      {"measurement": "Activity", "setting": "[10]", "value": "3 to 10", "unit": "µM"},
      {"measurement": "Activity", "setting": "[11]", "value": "Active"},
      {"measurement": "concentration", "setting": "[12]", "value": 59, "unit": "µM"},
      {"measurement": "Activity", "setting": "[13]", "value": "Active"},
      {"measurement": "Activity", "setting": "[14]", "value": "Active"},
      {"measurement": "Activity", "setting": "[15]", "value": "Dose-dependent effect"},
      {"measurement": "Activity", "setting": "[16]", "value": "Active"},
      {"measurement": "Activity", "setting": "[17]", "value": "Active"},
      {"measurement": "Activity", "setting": "[18]", "value": "Active"},
      {"measurement": "Activity", "setting": "[19]", "value": "Not Active"},
      {"measurement": "Activity", "setting": "[20]", "value": "Active"},
      {"measurement": "Activity", "setting": "[21]", "value": "3 to 10", "unit": "µM"},
      {"measurement": "Ratio", "setting": "[22]", "value": 0.5},
      {"measurement": "Activity", "setting": "[23]", "value": "Dose-dependent effect"},
      {"measurement": "MEC", "setting": "[23]", "value": 1, "unit": "µM"},
      {"measurement": "fMEC", "setting": "[23]", "value": 1, "unit": "nM"},
      {"measurement": "Ratio", "setting": "[24]", "value": 1.9},
      {"measurement": "Ratio EC50", "setting": "[25]", "value": 0.3}
    ]}
  ]
}
